Legend:
Assay in all cases: combination Emax (second highest fraction inhibited in the dose matrix, 72 h); higher = more inhibition; extreme values may be limits of the assay
[1] = test system: HuH-7 (Hepatocellular Carcinoma)
Outline: (§1)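 Bliss excess equals the observed combination effect minus the expected value EA + EB − EA·EB, where EA and EB are the effects of each agent alone. Combination Emax is the second-highest inhibition within the matrix. Inhibition was scaled from CellTiter-Glo 2.0 luminescence, with 0 set by vehicle wells and 1 by blank wells, after 72 hours of two-drug dosing of cells plated in 1536-well plates.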

[2] = test system: KMRC-20 (Kidney Carcinoma)
Outline: as §1

[3] = test system: MPP-89 (Mesothelioma)
Outline: as §1

[4] = test system: KYAE-1 (Esophageal Adenocarcinoma)
Outline: as §1

[5] = test system: NCI-H2052 (Mesothelioma)
Outline: as §1

[6] = test system: NCI-H524 (Small Cell Lung Carcinoma)
Outline: as §1

[7] = test system: Detroit562 (Head and Neck Carcinoma)
Outline: as §1

[8] = test system: BE-13 (T-Lymphoblastic Leukemia)
Outline: as §1

[9] = test system: BE2-M17 (Neuroblastoma)
Outline: as §1

[10] = test system: NCI-H2722 (Mesothelioma)
Outline: as §1

[11] = test system: SNU-16 (Gastric Carcinoma)
Outline: as §1

[12] = test system: KS-1 (Glioblastoma)
Outline: as §1

[13] = test system: OV-56 (Ovarian Carcinoma)
Outline: as §1

[14] = test system: SW1710 (Bladder Carcinoma)
Outline: as §1

[15] = test system: LCLC-97TM1 (Non-Small Cell Lung Carcinoma)
Outline: as §1

[16] = test system: YAPC (Pancreatic Carcinoma)
Outline: as §1

[17] = test system: CAL-33 (Oral Cavity Carcinoma)
Outline: as §1

[18] = test system: NCI-H1568 (Lung Adenocarcinoma)
Outline: as §1

[19] = test system: NCI-H209 (Small Cell Lung Carcinoma)
Outline: as §1

[20] = test system: GAMG (Glioblastoma)
Outline: as §1

SMILES	combination Emax [1]	combination Emax [2]	combination Emax [3]	combination Emax [4]	combination Emax [5]	combination Emax [6]	combination Emax [7]	combination Emax [8]	combination Emax [9]	combination Emax [10]	combination Emax [11]	combination Emax [12]	combination Emax [13]	combination Emax [14]	combination Emax [15]	combination Emax [16]	combination Emax [17]	combination Emax [18]	combination Emax [19]	combination Emax [20]
CCN(CCO)CCCOc1ccc2c(Nc3cc(CC(=O)Nc4cccc(F)c4)[nH]n3)ncnc2c1 [AZD2811] + O=C(c1cc(Cc2n[nH]c(=O)c3ccccc23)ccc1F)N1CCN(C(=O)C2CC2)CC1 [Olaparib] (first compound max 1 µM, 7x7, partner max 10 µM)	0.174	0.24	0.189	0.208	0.184	0.945	0.702	0.824	0.354	0.204	0.705	0.363	0.179	0.185	0.319	0.147	0.732	0.164	0.971	0.399
NC1(C(=O)N[C@@H](CCO)c2ccc(Cl)cc2)CCN(c2ncnc3[nH]ccc23)CC1 [Capivasertib] + COc1nnc2ccc(N3CCC(c4ccc(OCCN5CCN(C)C(=O)[C@H]5C)cc4)CC3)nn12 [AZD5153] (first compound max 10 µM, 7x7, partner max 1 µM)	0.518	0.398	0.495	0.223	0.427	0.667	0.925	0.644	0.696	0.473	0.854	0.755	0.41	0.587	0.805	0.309	0.749	0.305	0.539	0.724
Cc1c2c(nn1C)CSCc1cc(n(C)n1)CSc1cc(c3ccccc3c1)OCCCc1c(C(=O)O)n(C)c3c-2c(Cl)ccc13 [AZD5991] + C=CCn1c(=O)c2cnc(Nc3ccc(N4CCN(C)CC4)cc3)nc2n1-c1cccc(C(C)(C)O)n1 [AZD1775] (first compound max 1 µM, partner max 1 µM)	0.448	0.638	0.477	0.668	0.346	0.816	0.749	1	0.986	0.397	1	0.464	0.244	0.344	0.948	0.416	0.802	0.434	0.95	0.522
CCc1c2c(nc3ccc(O)cc13)-c1cc3c(c(=O)n1C2)COC(=O)[C@]3(O)CC [SN-38] + CN(C)CCCOc1ccc(-c2ccc3ncc4c(c3c2)n(C2CCOCC2)c(=O)n4C)cn1 [AZD0156] (first compound max 0.3 µM, 7x7, partner max 1 µM)	0.149	0.827	0.632	0.105	0.837	0.608	0.848	0.748	0.887	0.301	0.927	0.464	0.88	0.312	0.693	0.51	0.936	0.474	1	0.737
CN(CCO)CC[C@H](CSc1ccccc1)Nc1ccc(S(=O)(=O)NC(=O)c2ccc(N3CCC([C@@H](O)c4ccccc4-c4ccc(Cl)cc4)CC3)cc2)cc1S(=O)(=O)C(F)(F)F [AZD4320] + Cn1cnc2c(F)c(Nc3ccc(Br)cc3Cl)c(C(=O)NOCCO)cc21 [Selumetinib] (first compound max 1 µM, 7x7, partner max 3 µM)	0.55	0.261	0.399	0.377	0.262	0.84	0.637	0.995	0.852	0.508	0.649	0.341	0.304	0.315	0.489	0.194	0.701	0.444	1	0.296
CC1(C)CCC(CN2CCN(c3ccc(C(=O)NS(=O)(=O)c4ccc(NCC5CCOCC5)c([N+](=O)[O-])c4)c(Oc4cnc5[nH]ccc5c4)c3)CC2)=C(c2ccc(Cl)cc2)C1 [Venetoclax] + C[C@@H]1COCCN1C2=NC(=NC(=C2)C3(CC3)[S@](=N)(=O)C)C4=C5C=CNC5=NC=C4 [AZD6738] (first compound max 1 µM, 7x7, partner max 10 µM)	0.424	0.665	0.686	0.121	0.431	0.748	0.829	0.936	0.939	0.384	0.973	0.57	0.566	0.516	0.85	0.317	0.862	0.553	0.981	0.708
CC(=O)Nc1cccc(-n2c(=O)n(C3CC3)c(=O)c3c(Nc4ccc(I)cc4F)n(C)c(=O)c(C)c32)c1 [Trametinib] + Cc1nc(-c2cn3c(n2)-c2ccc(-c4cnn(C(C)(C)C(N)=O)c4)cc2OCC3)n(C(C)C)n1 [Taselisib] (first compound max 1 µM, 7x7, partner max 10 µM)	0.977	0.593	0.796	0.893	0.535	0.829	0.954	0.168	0.994	0.666	0.955	0.832	0.607	0.532	1	0.733	0.989	0.763	0.218	0.783
CN(CCO)CC[C@H](CSc1ccccc1)Nc1ccc(S(=O)(=O)NC(=O)c2ccc(N3CCC([C@@H](O)c4ccccc4-c4ccc(Cl)cc4)CC3)cc2)cc1S(=O)(=O)C(F)(F)F [AZD4320] + C1CN(CCC1(C(=O)N[C@@H](CCO)C2=CC=C(C=C2)Cl)N)C3=NC=NC4=C3C=CN4 [Capivasertib] (first compound max 1 µM, 7x7, partner max 3 µM)	0.197	0.245	0.198	0.65	0.229	0.765	0.414	0.994	0.374	0.22	0.27	0.296	0.0773	0.302	0.335	0.0702	0.363	0.142	1	0.407
CN(C)CCCOc1ccc(-c2ccc3ncc4c(c3c2)n(C2CCOCC2)c(=O)n4C)cn1 [AZD0156] + C[C@@H]1COCCN1C2=NC(=NC(=C2)C3(CC3)[S@](=N)(=O)C)C4=C5C=CNC5=NC=C4 [AZD6738] (first compound max 1 µM, 7x7, partner max 10 µM)	0.325	0.65	0.63	0.0979	0.399	0.858	0.88	0.723	0.928	0.248	0.982	0.561	0.741	0.509	0.88	0.294	0.782	0.49	0.854	0.422
CCN(CCO)CCCOc1ccc2c(Nc3cc(CC(=O)Nc4cccc(F)c4)[nH]n3)ncnc2c1 [AZD2811] + C[C@@H]1COCCN1C2=NC(=NC(=C2)C3(CC3)[S@](=N)(=O)C)C4=C5C=CNC5=NC=C4 [AZD6738] (first compound max 1 µM, 7x7, partner max 10 µM)	0.293	0.596	0.646	0.122	0.359	1	0.913	0.732	0.741	0.326	0.974	0.576	0.609	0.398	0.842	0.288	0.936	0.397	0.913	0.399
COc1nnc2ccc(N3CCC(c4ccc(OCCN5CCN(C)C(=O)[C@H]5C)cc4)CC3)nn12 [AZD5153] + Cn1cnc2c(F)c(Nc3ccc(Br)cc3Cl)c(C(=O)NOCCO)cc21 [Selumetinib] (first compound max 1 µM, 7x7, partner max 10 µM)	0.885	0.414	0.554	0.116	0.403	0.575	0.792	0.672	0.825	0.516	0.902	0.645	0.336	0.441	0.848	0.477	0.708	0.413	0.508	0.527
CN(CCO)CC[C@H](CSc1ccccc1)Nc1ccc(S(=O)(=O)NC(=O)c2ccc(N3CCC([C@@H](O)c4ccccc4-c4ccc(Cl)cc4)CC3)cc2)cc1S(=O)(=O)C(F)(F)F [AZD4320] + C[C@@H](Nc1cc(F)cc(F)c1)c1cc(C(=O)N(C)C)cc2c(=O)cc(N3CCOCC3)oc12 [AZD8186] (first compound max 1 µM, 7x7, partner max 3 µM)	0.583	0.381	0.494	0.387	0.262	0.892	0.666	1	0.722	0.555	0.658	0.486	0.277	0.373	0.343	0.237	0.714	0.344	1	0.615
